Data published in patent US20100048545A1, “Compounds and Compositions for Use in the Prevention and Treatment of Disorders of Fat Metabolism and Obesity” (INNODIA INC., priority 2006, published 2010).

Assays:
[1] = test system: Wistar rats fed HFHS diets; experiment: Energy expenditure (oxygen consumption) by indirect calorimetry in HFHS fed rats; type: in vivo; conditions: 100 mg/kg oral gavage twice daily, 4 weeks, vs pair fed and HFHS control, p<0.01
Description: A study was conducted to determine whether the decrease in adiposity as described above was due to increased energy expenditure. For this study, Wistar rats were randomized into 3 groups (n=10/group) and fed HFHS diets. […] The second group of animals served as pair fed controls, and while not treated with drug, diet in terms of caloric intake was matched to treated animals. The third group was fed a HFHS diet ad libitum without any treatment. After a 4 week period of treatment these animals were assessed by indirect calorimetry with increased oxygen consumption used as an indicator of increased energy expenditure.

dietary obese rat model = experiment: Energy balance (VO2, respiratory quotient) in dietary obese rat model, prevention and reversal studies; type: in vivo, male Wistar rats
Description: The effect of 4-OH on energy balance was assessed in the dietary obese rat model. In these studies, male Wistar rats were administered a high fat/high sucrose diet (65.4% fat) and treated chronically with 4-OH. Each study consisted of 4 groups of animals. The groups studied were normal chow fed rats, rats fed a high fat/high sucrose diet and rats fed a high fat high sucrose diet and orally administered 4-OH at 100 mg/kg twice per day. These three groups had access to food ad libitum throughout the study. A fourth group fed the same number of Kcal (or similar energy intake) as the 4-OH group was also included to investigate drug effects that may occur in addition to changes in food intake. Two studies were performed: one to determine whether 4-OH could prevent the development of obesity (prevention study) and the other to determine whether 4-OH could reverse established obesity (reversal study). In the prevention study, male Wistar rats were administered the high fat/high sucrose diet for 5 weeks. During the first week of diet administration, the rats were adapted to receiving increasing doses of 4-OH. In the reversal of obesity study, the animals were first made obese by feeding the high fat/high sucrose diet for 28 days. This feeding regime continued for the duration of the study. After the period of obesity induction, the rats were also adapted to receiving increasing doses of 4-OH during a one week period. After the adaptation period, 4-OH was orally administered at a dose of 100 mg/kg twice per day for the following 4 week period in both treatment protocols. The ability of 4-OH to influence energy expenditure was determined by indirect calorimetry. On the 21st day of both the prevention and reversal studies, rats were placed into metabolic cages and energy expenditure was assessed by determining oxygen consumption. The effect of 4-OH on oxygen consumption during the day/night cycle on Day 21 of both the prevention and reversal of obesity studies is shown in FIGS. 27A and 27B. The respiratory quotient (RQ) was calculated in these studies from both the quantity of oxygen consumed and the quantity of carbon dioxide produced while the animals were present in the metabolic chambers. A RQ of 1 is indicative that the animals are burning pure carbohydrate as the energy source.

[2] = test system: Wistar rat model of diet-induced obesity; experiment: Body fat (DEXA) and white adipose tissue weight in Wistar rat model of diet-induced obesity; type: in vivo, Wistar rats; conditions: 28 days
From the text: A total of 60 animals were used in the study. The animals were distributed into 6 groups; 1 group was fed standard chow, 1 group was fed a high fat, high sucrose (HFHS) diet with 28 days treatment, 1 untreated control group was fed a HFHS diet, and 1 untreated group was fed a HFHS diet, but with caloric intake restricted to match the caloric intake of the 4-OH treated animals (pair-fed animals). A fifth group was fed a high fat, high sucrose (HFHS) diet with 28 days treatment and received an acute oral administration of 4-OH prior to experimentation on Day 29 of the study, and a sixth group was fed a HFHS diet, but with caloric intake restricted to match the caloric intake of the 4-OH treated animals receiving an acute oral administration of 4-OH on Day 29 of the study (pair-fed animals). Each group was composed of 10 animals. […] Immediately prior to commencement of treatment the animals were evaluated by DEXA scanning (Dual Energy X-ray Absortiometry) to determine the baseline percentage of body weight related to fat. For the four weeks of treatment, the test article (4-OH) was dissolved in reverse osmosis water. 4-OH was aliquoted and kept at 4° C. […] Untreated animals received water twice daily.

C[C@@H]([C@H](C)O)[C@H](N)C(=O)O [Compound 14a, (2S,3R,4S)-4-Hydroxyisoleucine]
oxygen consumption (energy expenditure), night phase [1]: oxygen consumption was increased
respiratory quotient, night phase (dietary obese rat model; 100 mg/kg twice per day): not reduced
oxygen consumption per kg of body weight, night phase (dietary obese rat model; 100 mg/kg twice per day, Day 21): significantly enhanced relative to both the pair fed and control groups of animals
oxygen consumption (VO2), light phase (dietary obese rat model; 100 mg/kg twice per day, Day 21, prevention and reversal studies): essentially identical
respiratory quotient (fuel source), day phase (dietary obese rat model; 100 mg/kg twice per day, vs pair fed animals): burn proportionally more fat than pair fed animals
VO2 expressed per rat (dietary obese rat model; 100 mg/kg twice per day, vs pair fed control groups): greater
respiratory quotient (fuel source), day phase (dietary obese rat model; reversal study, vs pair fed and vehicle treated animals): proportionally more fat than both the pair fed and vehicle treated animals
percentage change in fat composition relative to baseline (DEXA) ([2]; 100 mg/kg twice daily oral, HFHS ad libitum, p<0.01): significant reduction in percentage fat
weight of white adipose tissues compared with normal chow animals ([2]; 100 mg/kg twice daily): the same as untreated animals receiving normal chow
weight of white adipose tissue (epididymal, inguinal and retroperitoneal) ([2]; 100 mg/kg twice daily, vs pair fed untreated and HFHS controls): significant reduction in the weight of these tissues
